Results published in patent EP0044212B1, “Herbicidal o-alkylsulfonyloxy- and o-alkylsulfonylamino-benzenesulfonamides” (E.I. DU PONT DE NEMOURS AND COMPANY, priority 1980, dated 1982).

Tests used:
Crabgrass = experiment: Test F over-the-top soil/foliage treatment; type: in vivo, Digitaria spp.; design: scale not given here; conditions: soil/foliage spray; 0.06 kg/ha; ~14 days
Procedure: (§1) The test chemicals, dissolved in a non-phytotoxic solvent, were applied in an overall spray to the foliage and surrounding […] of selected plant species. […] Approximately fourteen days after treatment, all species were visually compared to untreated controls and rated for response to treatment.
(§2) All plant species were seeded in Woodstown sandy loam soil and grown in a greenhouse. The following species were grown in soil contained in plastic pots (25 cm diameter by 13 cm deep): soybeans, cotton, alfalfa, corn, rice, wheet, sorghum, velvetleaf (Abutilon theophrasti), sesbania (Sesbania exaltata), Cassia (Cassia tora), morningglory (Ipomoea hederacea), jimsonweed (Datura stramonium), cocklebur (Xanthium pensylvanicum), crabgrass (Digitaria spp.), nutsedge (Cyperus rotundus), barnyardgrass (Echinochloa crusgalli), giant foxtail (Setaria faberii) and wild oats (Avena fatua). The following species were grown in soil in a paper cup (12 cm diameter by 13 cm deep): sunflower, sugarbeets, and mustard. All plants were sprayed approximately 14 days after planting.

Morningglory [1] = experiment: Test B pre-emergence on Fallsington silt loam; type: in vivo, Ipomoea hederacea; conditions: 0.03 kg/ha, 28 days
From the text: (§3) Two plastic bulb pans were filled with fertilized and limed Fallsington silt loam soil. One pan was planted with corn, sorghum, Kentucky bluegrass and several grassy weeds. The other pan was planted with cotton, soybeans, purple nutsedge (Cyperus rotundus), and several broadleaf weeds. The following grassy and broadleaf weeds were planted: crabgrass (Digitaria sanguinalis), barnyardgrass (Echinochloa crusgalli), wild oats (Avena fatua), johnsongrass (Sorghum halepense), dallisgrass (Paspalum dilatatum), giant foxtail (Setaria faberii), cheatgrass (Bromus secalinus), mustard (Brassica arvensis), cocklebur (Xanthium pensylvanicum), pigweed (Amaranthus retroflexus), morningglory (Ipomoea hederacea), cassia (Cassia tora), teaweed (Sida spinosa), velvetleaf (Abutilon theophrasti), and jimsonweed (Datura stramonium). A 12.5 cm diameter plastic pot was also filed with prepared soil and planted with rice and wheat. Another 12.5 cm pot was planted with sugarbeets. The above four containers were treated pre- emergence with several test compounds within the scope of the invention.
(§4) Twenty-eight days after treatment, the plants were evaluated and visually rated for response to the chemical treatments utilizing the rating system described previously for Test A. The data are summarized in Table B.

Giant Foxtail [2] = experiment: Test B pre-emergence on Fallsington silt loam; type: in vivo, Setaria faberii; conditions: 0.12 kg/ha, 28 days
From the text: as §3, §4

Pigweed = experiment: Test B pre-emergence on Fallsington silt loam; type: in vivo, Amaranthus retroflexus; conditions: 0.03 kg/ha, 28 days
From the text: as §3, §4

Wild Oats = experiment: Test F over-the-top soil/foliage treatment; type: in vivo, Avena fatua; design: scale not given here; conditions: soil/foliage spray; 0.06 kg/ha; ~14 days
Procedure: as §1, §2

Corn [3] = experiment: Test B pre-emergence on Fallsington silt loam; type: in vivo; design: scale not given here; conditions: 0.12 kg/ha, 28 days
From the text: as §3, §4

Sugarbeets = experiment: Test B pre-emergence on Fallsington silt loam; type: in vivo; design: scale not given here; conditions: 28 days
From the text: as §3, §4

Wheat [4] = experiment: Test B pre-emergence on Fallsington silt loam; type: in vivo; design: scale not given here; conditions: 0.03 kg/ha, 28 days
From the text: as §3, §4

Johnsongrass = experiment: Test B pre-emergence on Fallsington silt loam; type: in vivo, Sorghum halepense; design: scale not given here; conditions: 0.12 kg/ha, 28 days
From the text: as §3, §4

Barnyardgrass [5] = experiment: Test B pre-emergence on Fallsington silt loam; type: in vivo, Echinochloa crusgalli; conditions: 0.12 kg/ha, 28 days
From the text: as §3, §4

Wheat [6] = experiment: Test C pre-emergence on Fallsington silt loam soil; type: in vivo; conditions: 0.06 kg/ha, 28 days
From the text: The high herbicidal activity of two of the compounds from within the scope of the invention is evident from the results obtained in this test. The experiment concerned pre-emergence applications on soil. The containers used were 25 cm diameter plastic pots filled with Fallsington silt loam. One set of pots was planted to weeds, the seeds of which were uniformly mixed with the top 1.2 cm layer of soil. The species selected were: johnsongrass (Sorghum halepense), barnyardgrass (Echinochloa crusgalli), crabgrass (Digitaria sanguinalis), giant foxtail (Setaria faberii), velvetleaf (Abutilon theophrasti), jimsonweed (Datura stramonium), mustard (Brassica arvensis), and pigweed (Amaranthus retroflexus). Another set of pots were planted to the following crops with from one to four species per pot: corn (planting depth 3.7 cm), cotton, soybeans, sunflower, Clinton oats, wheat, Black Valentine beans, rice, sorghum, peas, flax, and peanuts (all at 2.5 cm depth), cucumbers, cabbage, alfalfa, safflower, sugarbeets, tomato, spinach, barley, and Kentucky bluegrass (all at 1.2 cm depth). Immediately after planting, the test chemical was applied to the soil surfaces dissolved in a non-phytotoxic solvent. One pot from the weed phase and one of each of the crop species were left untreated for the purpose of comparison. The treated and untreated pots were promptly watered with approximatley 4 mm of simultated rainfall and then held in a greenhouse for several weeks. Visual weed and crop response ratings were made 28 days after treatment utilizing the rating system as described above for Test A. The data are given in Table C.

Sorghum [7] = experiment: Test B pre-emergence on Fallsington silt loam; type: in vivo; conditions: 0.03 kg/ha, 28 days
From the text: as §3, §4

Wheat [8] = experiment: Test F over-the-top soil/foliage treatment; type: in vivo, wheet; design: scale not given here; conditions: soil/foliage spray, ~14 days
Procedure: as §1, §2

Barnyardgrass [9] = experiment: Test F over-the-top soil/foliage treatment; type: in vivo, Echinochloa crusgalli; design: scale not given here; conditions: soil/foliage spray; 0.06 kg/ha; ~14 days
Procedure: as §1, §2

Jimsonweed = experiment: Test F over-the-top soil/foliage treatment; type: in vivo, Datura stramonium; conditions: soil/foliage spray; 0.06 kg/ha; ~14 days
Procedure: as §1, §2

Morningglory [10] = experiment: Test F over-the-top soil/foliage treatment; type: in vivo, Ipomoea hederacea; conditions: soil/foliage spray; 0.06 kg/ha; ~14 days
Procedure: as §1, §2

Nutsedge [11] = experiment: Test F over-the-top soil/foliage treatment; type: in vivo, Cyperus rotundus; design: scale not given here; conditions: soil/foliage spray, ~14 days
Procedure: as §1, §2

Alfalfa = experiment: Test F over-the-top soil/foliage treatment; type: in vivo; design: scale not given here; conditions: soil/foliage spray, ~14 days
Procedure: as §1, §2

Sorghum [12] = experiment: Test F over-the-top soil/foliage treatment; type: in vivo; design: scale not given here; conditions: soil/foliage spray; 0.06 kg/ha; ~14 days
Procedure: as §1, §2

Corn [13] = experiment: Test F over-the-top soil/foliage treatment; type: in vivo; conditions: soil/foliage spray; 0.06 kg/ha; ~14 days
Procedure: as §1, §2

Soybeans = experiment: Test F over-the-top soil/foliage treatment; type: in vivo; conditions: soil/foliage spray; 0.06 kg/ha; ~14 days
Procedure: as §1, §2

Rice = experiment: Test F over-the-top soil/foliage treatment; type: in vivo; conditions: soil/foliage spray; 0.06 kg/ha; ~14 days
Procedure: as §1, §2

Giant Foxtail [14] = experiment: Test F over-the-top soil/foliage treatment; type: in vivo, Setaria faberii; design: scale not given here; conditions: soil/foliage spray; 0.06 kg/ha; ~14 days
Procedure: as §1, §2

Mustard = experiment: Test B pre-emergence on Fallsington silt loam; type: in vivo, Brassica arvensis; conditions: 28 days
From the text: as §3, §4

Sesbania = experiment: Test F over-the-top soil/foliage treatment; type: in vivo, Sesbania exaltata; design: scale not given here; conditions: soil/foliage spray, ~14 days
Procedure: as §1, §2

Ky. bluegrass = experiment: Test B pre-emergence on Fallsington silt loam; type: in vivo, Kentucky bluegrass; design: scale not given here; conditions: 0.12 kg/ha, 28 days
From the text: as §3, §4

Nutsedge [15] = experiment: Test B pre-emergence on Fallsington silt loam; type: in vivo, Cyperus rotundus; conditions: 0.03 kg/ha, 28 days
From the text: as §3, §4

Cocklebur = experiment: Test B pre-emergence on Fallsington silt loam; type: in vivo, Xanthium pensylvanicum; conditions: 28 days
From the text: as §3, §4

Velvetleaf = experiment: Test F over-the-top soil/foliage treatment; type: in vivo, Abutilon theophrasti; conditions: soil/foliage spray; 0.015 kg/ha; ~14 days
Procedure: as §1, §2

**Q.** `COc1cc(C)nc(NC(=O)NS(=O)(=O)c2ccccc2OS(C)(=O)=O)n1` [Compound 2, 2-Hydroxy-N-[(4-methoxy-6-methylpyrimidin-2-yl)aminocarbonyl]benzenesulfonamide, methanesulfonate] was tested. Which Crabgrass response rating (Crabgrass) did it give?
**A.** 10C

**Q.** And the Morningglory response rating (Morningglory [1])?
**A.** 7G

**Q.** And the “Giant Foxtail response rating” value (Giant Foxtail [2])?
**A.** 10C

**Q.** What about the Pigweed response rating (Pigweed) of the same molecule?
**A.** 7G

**Q.** What about the “Wild Oats response rating” value (Wild Oats) of the same molecule?
**A.** 10C

**Q.** What about the Corn response rating (Corn [3]) of the same molecule?
**A.** 10C

**Q.** What about the Sugarbeets response rating (Sugarbeets; 0.03 kg/ha) of the same molecule?
**A.** 10C

**Q.** And the Sugarbeets response rating (Sugarbeets; 0.12 kg/ha)?
**A.** 10C

**Q.** What about the Wheat response rating (Wheat [4]) of the same molecule?
**A.** 5G

**Q.** And the Johnsongrass response rating (Johnsongrass)?
**A.** 10C

**Q.** What about the Barnyardgrass response rating (Barnyardgrass [5]) of the same molecule?
**A.** 10C

**Q.** What about the Wheat response rating (Wheat [6]) of the same molecule?
**A.** 5G

**Q.** And the Sorghum response rating (Sorghum [7])?
**A.** 10C

**Q.** And the Wheat response rating (Wheat [8]; 0.015 kg/ha)?
**A.** 1C

**Q.** What about the Wheat response rating (Wheat [8]; 0.06 kg/ha) of the same molecule?
**A.** 9C

**Q.** And the Barnyardgrass response rating (Barnyardgrass [9])?
**A.** 10C

**Q.** And the Jimsonweed response rating (Jimsonweed)?
**A.** 10C

**Q.** What about the Morningglory response rating (Morningglory [10]) of the same molecule?
**A.** 10C

**Q.** And the Nutsedge response rating (Nutsedge [11]; 0.015 kg/ha)?
**A.** 2C

**Q.** What about the Nutsedge response rating (Nutsedge [11]; 0.06 kg/ha) of the same molecule?
**A.** 10C

**Q.** And the Alfalfa response rating (Alfalfa; 0.015 kg/ha)?
**A.** 7C

**Q.** What about the Alfalfa response rating (Alfalfa; 0.06 kg/ha) of the same molecule?
**A.** 10C

**Q.** And the Sorghum response rating (Sorghum [12])?
**A.** 10C

**Q.** And the Corn response rating (Corn [13])?
**A.** 10C

**Q.** What about the Soybeans response rating (Soybeans) of the same molecule?
**A.** 9C

**Q.** What about the Rice response rating (Rice) of the same molecule?
**A.** 10C

**Q.** What about the “Giant Foxtail response rating” value (Giant Foxtail [14]) of the same molecule?
**A.** 10C

**Q.** And the Mustard response rating (Mustard; 0.03 kg/ha)?
**A.** 10C

**Q.** And the Mustard response rating (Mustard; 0.12 kg/ha)?
**A.** 10C

**Q.** And the Sesbania response rating (Sesbania; 0.015 kg/ha)?
**A.** 9C

**Q.** What about the Sesbania response rating (Sesbania; 0.06 kg/ha) of the same molecule?
**A.** 10C

**Q.** What about the “Ky. bluegrass response rating” value (Ky. bluegrass) of the same molecule?
**A.** 10C

**Q.** And the Nutsedge response rating (Nutsedge [15])?
**A.** 6G

**Q.** What about the Cocklebur response rating (Cocklebur; 0.03 kg/ha) of the same molecule?
**A.** 5G

**Q.** What about the Cocklebur response rating (Cocklebur; 0.12 kg/ha) of the same molecule?
**A.** 10C

**Q.** And the Velvetleaf response rating (Velvetleaf)?
**A.** 5G
